Consider 25 compounds from US8569267B2, “Tetracyclic tetrahydrofuran derivatives containing cyclic amine side chain” (Janssen Pharmaceutica, NV, priority 2005, dated 2013).

Test [1] concerns the target T1, human cloned 5-HT2A receptor, expressed in L929 cells (Homo sapiens, UniProt P28223).
T1 construct: expressed in transfected cells; host or cells: L929 cells
Kind of test: In vitro binding affinity for 5-HT2A receptor ([125I]R91150 radioligand binding). The settings on record: human cloned 5-HT2A receptor in L929 cells, [125I]R91150; for IC50: read-out: 5-HT2A pIC50 (converted). As for the experimental part: (§1) In Vitro Binding Affinity for 5-HT2A and 5-HT2C Receptors
(§2) The interaction of the compounds of Formula (I) with 5-HT2A and 5-HT2C receptors was assessed in in vitro radioligand binding experiments. […] During the incubation, the radioligands bind to the receptor. When equilibrium of binding is reached, the receptor bound radioactivity is separated from the non-bound radioactivity, and the receptor bound activity is counted. The interaction of the test compounds with the receptors is assessed in competition binding experiments. Various concentrations of the test compound are added to the incubation mixture containing the tissue preparation and the radioligand. Binding of the radioligand will be inhibited by the test compound in proportion to its binding affinity and its concentration. The affinities of the compounds for the 5-HT2 receptors were measured by means of radioligand binding studies conducted with: (a) human cloned 5-HT2A receptor, expressed in L929 cells using [^125I]R91150 as radioligand and (b) human cloned 5-HT2C receptor, expressed in CHO cells using [^3H]mesulergine as radioligand.

Test [2] deals with T2, NET (norepinephrine transporter) (Rattus norvegicus, UniProt Q63380).
T2 construct: Cortex from rat brain was collected and homogenised; from tissue; host or cells: rat brain cortex
In words: In vitro determination of NET reuptake inhibition ([3H]Nixosetine binding, rat brain cortex). The settings on record: rat brain cortex; for IC50: read-out: NET pIC50 (converted). As for the experimental part: In Vitro Determination of NET Reuptake Inhibition
Cortex from rat brain was collected and homogenised using an Ultra-Turrax T25 and a Dual homogeniser in ice-cold homogenising buffer containing Tris, NaCl and KCl (50 mM, 120 mM and 5 mM, respectively, pH 7.4) prior to dilution to an appropriate protein concentration optimised for specific and non-specific binding. […] Membrane-bound activity was detected by filtration through a Packard Filtermate harvester onto GF/B Unifilterplates, washed with ice-cold Tris-HCl buffer, containing NaCl and KCl (50 mM, 120 mM and 4 mM; pH 7.4; 6×0.5 ml). Filters were allowed to dry for 24 h before adding scintillation fluid. Scintillation fluid was allowed to saturate filters for 24 h before counting in a Topcount scintillation counter. Percentage specific bound and competition binding curves were calculated using S-Plus software (Insightful).

Test [3] concerns the target T3, human cloned 5-HT2C receptor, expressed in CHO cells (Homo sapiens, UniProt P28335).
T3 construct: expressed in transfected cells; host or cells: CHO cells
T3 sequence (P28335 33-458): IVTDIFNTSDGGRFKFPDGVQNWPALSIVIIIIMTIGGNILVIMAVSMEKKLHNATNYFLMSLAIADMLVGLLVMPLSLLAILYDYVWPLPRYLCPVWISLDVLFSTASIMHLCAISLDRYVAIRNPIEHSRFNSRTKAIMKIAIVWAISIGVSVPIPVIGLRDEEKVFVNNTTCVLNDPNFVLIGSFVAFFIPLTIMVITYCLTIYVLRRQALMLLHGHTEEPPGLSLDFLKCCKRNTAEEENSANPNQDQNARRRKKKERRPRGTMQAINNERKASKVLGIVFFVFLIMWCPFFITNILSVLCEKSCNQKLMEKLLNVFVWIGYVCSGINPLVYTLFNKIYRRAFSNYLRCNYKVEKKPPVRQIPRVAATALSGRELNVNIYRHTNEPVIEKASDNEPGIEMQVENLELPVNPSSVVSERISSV
Kind of test: In vitro binding affinity for 5-HT2C receptor ([3H]mesulergine radioligand binding). As to conditions: human cloned 5-HT2C receptor; for IC50: read-out: 5-HT2C pIC50 (converted). As for the experimental part: as §1
as §2, with “concentration.” for “concentration. The affinities of the compounds for the 5-HT2 receptors were measured by means of radioligand binding studies conducted with: (a) human cloned 5-HT2A receptor, expressed in L929 cells using [^125I]R91150 as radioligand and (b) human cloned 5-HT2C receptor, expressed in CHO cells using [^3H]mesulergine as radioligand.”

The target in test [4] is T4, human Dopamine D2L receptor (Homo sapiens, UniProt P14416).
T4 construct: expressed in transfected cells; host or cells: CHO cells
In words: In vitro binding affinity for human D2L receptor ([3H]Spiperone binding). The settings on record: human D2L receptor-transfected CHO cell membranes; for IC50: read-out: D2L pIC50 (converted). As for the experimental part: In Vitro Binding Affinity for Human D2L Receptor
Frozen membranes of human Dopamine D2L receptor-transfected CHO cells were thawed, briefly homogenised using an Ultra-Turrax T25 homogeniser and diluted in Tris-HCl assay buffer containing NaCl, CaCl2, MgCl2, KCl (50, 120, 2, 1, and 5 mM respectively, adjusted to pH 7.7 with HCl) to an appropriate protein concentration optimised for specific and non-specific binding. Radioligand [^3H]Spiperone (NEN, specific activity ˜70 Ci/mmol) was diluted in assay buffer at a concentration of 2 nmol/L. Prepared radioligand (50 μl), along with 50 μl of either the 10% DMSO control, Butaclamol (10^−6 mol/l final concentration), or compound of interest, was then incubated (30 min, 37° C.) with 400 μl of the prepared membrane solution. Membrane-bound activity was filtered through a Packard Filtermate harvester onto GF/B Unifilterplates and washed with ice-cold Tris-HCl buffer (50 mM; pH 7.7; 6×0.5 ml). Filters were allowed to dry before adding scintillation fluid and counting in a Topcount scintillation counter. Percentage specific bound and competition binding curves were calculated using S-Plus software (Insightful).

Molecules are shown by their SMILES.

T2 sequence (Q63380 1-617): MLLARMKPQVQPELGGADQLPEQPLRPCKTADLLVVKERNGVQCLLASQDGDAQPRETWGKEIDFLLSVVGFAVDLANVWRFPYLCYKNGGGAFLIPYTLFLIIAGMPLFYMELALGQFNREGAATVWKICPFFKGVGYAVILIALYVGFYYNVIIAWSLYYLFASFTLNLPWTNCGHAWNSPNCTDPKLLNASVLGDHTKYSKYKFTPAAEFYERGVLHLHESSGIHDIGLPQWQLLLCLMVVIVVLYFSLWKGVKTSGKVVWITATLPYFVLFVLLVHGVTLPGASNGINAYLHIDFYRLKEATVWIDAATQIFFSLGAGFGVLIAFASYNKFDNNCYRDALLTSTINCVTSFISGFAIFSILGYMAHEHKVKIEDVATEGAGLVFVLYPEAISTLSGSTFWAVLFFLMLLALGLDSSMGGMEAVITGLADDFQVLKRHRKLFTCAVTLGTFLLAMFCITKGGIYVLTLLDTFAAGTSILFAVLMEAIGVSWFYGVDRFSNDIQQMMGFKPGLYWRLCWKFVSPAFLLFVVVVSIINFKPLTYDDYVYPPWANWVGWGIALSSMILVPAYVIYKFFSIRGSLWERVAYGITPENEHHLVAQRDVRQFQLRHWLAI
T1 sequence (P28223 whole entry): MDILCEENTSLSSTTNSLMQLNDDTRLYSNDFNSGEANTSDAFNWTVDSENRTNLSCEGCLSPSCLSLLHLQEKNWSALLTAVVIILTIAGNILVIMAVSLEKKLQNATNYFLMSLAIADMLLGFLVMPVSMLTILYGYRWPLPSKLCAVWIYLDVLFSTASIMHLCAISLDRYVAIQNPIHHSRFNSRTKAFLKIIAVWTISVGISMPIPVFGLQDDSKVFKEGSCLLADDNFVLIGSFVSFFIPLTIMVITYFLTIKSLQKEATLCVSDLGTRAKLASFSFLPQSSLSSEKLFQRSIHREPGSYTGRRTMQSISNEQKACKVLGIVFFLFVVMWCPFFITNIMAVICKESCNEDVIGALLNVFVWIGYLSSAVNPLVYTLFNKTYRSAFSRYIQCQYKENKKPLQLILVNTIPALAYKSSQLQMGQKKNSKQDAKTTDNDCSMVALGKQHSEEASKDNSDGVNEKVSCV
T4 sequence (P14416 whole entry): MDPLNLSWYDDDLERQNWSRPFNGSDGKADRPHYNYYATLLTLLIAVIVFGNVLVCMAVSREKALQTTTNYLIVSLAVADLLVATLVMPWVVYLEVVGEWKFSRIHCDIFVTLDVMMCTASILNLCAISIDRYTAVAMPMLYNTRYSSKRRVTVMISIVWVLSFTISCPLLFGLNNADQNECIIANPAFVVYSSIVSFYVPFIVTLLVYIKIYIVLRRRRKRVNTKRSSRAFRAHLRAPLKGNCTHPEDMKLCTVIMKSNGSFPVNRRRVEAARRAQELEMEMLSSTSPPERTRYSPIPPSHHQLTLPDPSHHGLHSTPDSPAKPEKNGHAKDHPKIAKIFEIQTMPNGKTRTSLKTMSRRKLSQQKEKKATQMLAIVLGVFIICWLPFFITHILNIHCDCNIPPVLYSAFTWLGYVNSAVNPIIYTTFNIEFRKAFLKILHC

On to `COc1ccc2c(c1)C1OC(CN3CCC(O)CC3)CC1c1ccccc1O2.O=C(O)C(=O)O` (racemic) [Compound 287], for which, in test [1], the “5-HT2A pIC50” value came to 7.62. In addition, in test [2], the “NET pIC50” value was less than 5. In addition, the “5-HT2C pIC50” value in test [3] was determined as 6.54. Further, the “D2L pIC50” value in test [4] came to 6.17.

For `Fc1ccc2c(c1)C1OC(CN3CCC(Oc4cccc(C(F)(F)F)c4)C3)CC1c1ccccc1C2` (mixture of isomers) [Compound 37], the IC50 in test [1] is 0.0224 µM; in test [2], greater than 10 µM; in test [3], 0.00794 µM; in test [4], 0.0324 µM.

As to `Fc1cccc(OCC2CCN(CC3CC4c5ccccc5Cc5ccc(F)cc5C4O3)C2)c1` (stereo not drawn) [Compound 27], the IC50 in test [1] was 0.00871 µM; in test [2], 5.01 µM; in test [3], 0.00427 µM; in test [4] it was 0.00389 µM.

`CCCCCCCCCCNC(=O)C1CCN(C[C@H]2C[C@@H]3c4ccccc4Cc4ccc(F)cc4[C@@H]3O2)CC1` [Compound 178]: the IC50 is less than 0.01 µM in test [1], greater than 10 µM in test [2], 0.00933 µM in test [3] and 0.0501 µM in test [4].

With `Fc1ccc2c(c1)C1OC(CN3CCN(c4ncccc4C(F)(F)F)CC3)CC1c1ccccc1C2` (stereo not drawn) [Compound 121], the IC50 in test [1] is 0.0132 µM; in test [2], 3.55 µM; in test [3], 0.0776 µM; in test [4], 0.0776 µM.

On to `C=CCOC(=O)N1CCN(CC2CC3c4ccccc4Cc4ccc(F)cc4C3O2)CC1` (stereo not drawn) [Compound 84], for which the IC50 is 0.00813 µM in test [1], greater than 10 µM in test [2], 0.0251 µM in test [3] and 0.0257 µM in test [4].

For the compound `OCC1CCN(C[C@H]2C[C@@H]3c4ccccc4Cc4ccc(F)cc4[C@@H]3O2)C1` (stereo partly drawn) [Compound 5], the IC50 in test [1] is less than 0.01 µM; in test [2] it was 4.07 µM; in test [3], 0.000204 µM; in test [4], 0.00851 µM.

With `O=C(c1ccccc1)N1CCN(CC2CC3c4ccccc4Cc4ccc(F)cc4C3O2)CC1` (stereo not drawn) [Compound 82, [2R-(2α, 3aα, 12bβ)][4-(11-fluoro-3,3a,8,12b-tetrahydro-2H-1-oxa-dibenzo[e,h]-azulen-2-ylmethyl)-piperazin-1-yl]-phenyl-methanone.oxalate (1:1)], the IC50 in test [1] was 0.00214 µM; in test [2], greater than 10 µM; in test [3], 0.00324 µM; in test [4], 0.0195 µM.

In the case of `CC(=Cc1ccccc1)CN1CCN(CC2CC3c4ccccc4Cc4ccc(F)cc4C3O2)CC1` (stereo not drawn) [Compound 49], the IC50 in test [1] was 0.0339 µM; in test [2] it was 2.57 µM; in test [3], 0.12 µM; in test [4] it was 0.0331 µM.

In the case of `CCC(C)(C)NC(=O)N1CCN(CC2CC3c4ccccc4Cc4ccc(F)cc4C3O2)CC1` (stereo not drawn) [Compound 90], the IC50 was 0.00162 µM in test [1], 4.47 µM in test [2], 0.02 µM in test [3] and 0.0309 µM in test [4].

With `O=C(NCCCc1ccccc1)N1CCN(CC2CC3c4ccccc4Cc4ccc(F)cc4C3O2)CC1` (stereo not drawn) [Compound 93], the IC50 is 0.00257 µM in test [1], 4.17 µM in test [2], 0.00501 µM in test [3] and 0.0117 µM in test [4].

With `N#CCC1CCN(CC2CC3c4ccccc4Cc4ccc(F)cc4C3O2)CC1` (stereo not drawn) [Compound 168], the IC50 in test [1] was 0.00389 µM; in test [2], greater than 10 µM; in test [3], 0.00933 µM; in test [4], 0.00282 µM.

Regarding `O=S(=O)(Cc1ccccc1)N1CCN(CC2CC3c4ccccc4Cc4ccc(F)cc4C3O2)CC1` (stereo not drawn) [Compound 105], the IC50 is 0.00468 µM in test [1], greater than 10 µM in test [2], 0.0309 µM in test [3] and 0.00407 µM in test [4].

For the compound `CN(CCO)CCC1CN(CC2CC3c4ccccc4Cc4ccc(F)cc4C3O2)CCO1` (mixture of isomers) [Compound 133], the IC50 in test [1] is 0.049 µM; in test [2], 0.933 µM; in test [3], 0.0347 µM; in test [4], 0.355 µM.

Regarding `O=C(NC1CCCCCCC1)N1CCN(C[C@H]2C[C@@H]3c4ccccc4Cc4ccc(F)cc4[C@@H]3O2)CC1` [Compound 98], the IC50 in test [1] is 0.00339 µM; in test [2] it was 9.55 µM; in test [3] it was 0.0195 µM; in test [4] it was 0.0427 µM.

Consider `O=C(OCc1ccccc1)N1CCN(CC2CC3c4ccccc4Cc4ccc(F)cc4C3O2)CC1` (stereo not drawn) [Compound 85], for which the figures for the IC50 in test [1], in test [2] and in test [3] were 0.0661 µM, greater than 10 µM and 0.0631 µM, respectively.

In the case of `O=C(Cc1cccs1)NC1CCN(CC2CC3c4ccccc4Cc4ccc(F)cc4C3O2)CC1` (stereo not drawn) [Compound 240], the IC50 in test [2] is greater than 10 µM; in test [3] it was 0.00575 µM; in test [4], 0.00457 µM.

In the case of `OC1CCCN(CC2CC3c4ccccc4Cc4ccc(F)cc4C3O2)C1` (racemic) [Compound 141], the IC50 in test [2] is 4.79 µM; in test [3], 0.00115 µM; in test [4], 0.0166 µM.

`O=C(NCc1ccccn1)C1CCN(CC2CC3c4ccccc4Cc4ccc(F)cc4C3O2)CC1` (stereo not drawn) [Compound 197]: the IC50 in test [2] is 8.51 µM; in test [3], 0.001 µM; in test [4] it was 0.00457 µM.

Turning to `Cc1onc(-c2ccccc2Cl)c1C(=O)NC1CCN(CC2CC3c4ccccc4Cc4ccc(F)cc4C3O2)CC1` (stereo not drawn) [Compound 222], the IC50 in test [2] is greater than 10 µM; in test [3], 0.0195 µM; in test [4] it was 0.0151 µM.

As for `N#Cc1ccc2c(c1)C1CC(CN3CCC(O)C3)OC1c1cc(F)ccc1S2.O=C(O)C(=O)O` (mixture of isomers) [Compound 259], the “NET pIC50” value in test [2] is given as 5.38. Also, in test [3], the “5-HT2C pIC50” value was found to be 7.64. The “D2L pIC50” value in test [4] worked out at 6.59.

`COCCOC(=O)NC1CCN(CC2CC3c4ccccc4Cc4ccc(F)cc4C3O2)CC1` (stereo not drawn) [Compound 216]: the results for the IC50 in test [2], in test [3] and in test [4] were greater than 10 µM, 0.00617 µM and 0.0102 µM, respectively.

For `CCOC(=O)C1CCN(C[C@H]2C[C@@H]3c4ccccc4Cc4ccc(F)cc4[C@@H]3O2)CC1` [Compound 162], the IC50 in test [2] was greater than 10 µM; in test [3], 0.00102 µM; in test [4] it was 0.00363 µM.

For `O=C(Nc1ccc2c(c1)CCC2)NC1CCN(CC2CC3c4ccccc4Cc4ccc(F)cc4C3O2)CC1` (stereo not drawn) [Compound 238], the IC50 in test [2] was 7.76 µM; in test [3], 0.00562 µM; in test [4] it was 0.0214 µM.

`O=C(NC1CCN(CC2CC3c4ccccc4Cc4ccc(F)cc4C3O2)CC1)c1cccc(F)c1` (stereo not drawn) [Compound 231]: the IC50 was 8.51 µM in test [2], 0.0107 µM in test [3] and 0.00186 µM in test [4].
